The values that follow come from US7829562B2, “Sigma ligands for neuronal regeneration and functional recovery” (M's Science Corporation, priority 2003, dated 2010).

Each structure is given as a SMILES string.

The target in experiment [1] is sigma-1 site compared to the sigma-2 site (Homo sapiens, UniProt Q99720). To be noted: (+) isomers of benzomorphan opiates; cited from earlier work.
The subject of experiment [2] is spontaneously hypertensive rats exposed to permanent middle artery occlusion (MCAO). In words: Rotating pole test after MCA occlusion (stroke model). It is filed as in vivo, rat. To be noted: 0.03-10 mg/kg s.c. or p.o. from two days after MCAO for 2-8 weeks; present-tense example. The source says: (§1) Male 3 months old SHR (spontaneous hypertensive) rats are used for induction of stroke by MCA occlusion. This is the preferred strain since most stroke patients are hypertensive. The animals are anesthetized with Methohexital and a small craniectomy is made above the zygmotic arch to expose the middle cerebral artery, which is occluded with a 10-0 monofilament nylon thread distal to the origin of the striatal branches. The rats are not intubated and no catheters are inserted. Following MCA occlusion a large and reproducible infarct is obtained, leading to a robust sensorimotor deficit. The animals are kept on a 6 hr light/18 h dark cycle with free access to food and water. At two days after the MCAO the rats are treated with the compound I, II, III, IV, V, VI, VII, VIII, or IX (0.03-10 mg/kg) s.c. or p.o. and a control group is given saline for 2-8 weeks. At 2, 4, 6 and 8 weeks animals are tested in the rotating pole or cylinder test.
Cylinder Test for Asymmetric Use of Forelimb Use in Spontaneous Rearing
Thirty five spontaneously hypertensive rats were exposed to permanent middle artery occlusion (MCAO), then divided into three treatment groups. Starting at two days after occlusion and continuing daily until 28 days after occlusion, AGY-94806 was administered s.c. in doses of 0.3 mg/kg (12 rats) or 1.0 mg/kg (12 rats). In a control group (11 rats), vehicle only was administered. At the start of treatment, and at several time points during the test, the rats were assessed for their performance in the rotating pole model. This model is described in Example 1. It requires the rats to cross a horizontally suspended rotating pole having a length of 1 m. This task measures the sensory-motor performance of the animals. The animals' behaviour was recorded using a video camera and later analyzed and scored by a trained technician. The scoring ranges from 0 to 6, with 0 being very poor performance and 6 reflecting the performance of a healthy animal (without MCAO).

Experiment [3] has the same test system. In words: Cylinder test for asymmetric forelimb use after MCA occlusion. To be noted: for performance in cylinder test versus control animals: 0.03-10 mg/kg s.c. or p.o. from two days after MCAO for 2-8 weeks, present-tense example. Format: in vivo, rat.
Description: as §1
The cylinder test (modified from Schallert and Tillerson (Innovative models of CNS disease: from molecule to therapy. Clifton, N.J., Humana, 1999) is used to quantify the forelimb use for rearing on the cylinder wall. The rats are monitored as they move freely in a 20-cm-wide clear glass cylinder. Contacts made by each forepaw with the cylinder wall while rearing are scored by a blinded observer. A total of 20 contacts are recorded for each animal, and the number of impaired (left), both, and non-impaired forelimb contacts as percentage of total contacts is calculated. Baseline for rats is achieved by measuring the contacts made by each forepaw before MCAO.
Forty three spontaneously hypertensive rats were exposed to permanent middle artery occlusion (MCAO), then divided into three treatment groups. Starting at two days after occlusion and continuing daily for 14 days, AGY-94806 was administered p.o. in doses of 0.1 mg/kg (14 rats) or 0.3 mg/kg (14 rats). In a control group (15 rats), vehicle only was administered. At the start of treatment, and at several time points during the test, the rats were assessed for their performance in the cylinder test. This test is described in Example 1. It measures the sensory-motor performance of the animals. The performance of the rats in the test was assessed one day before permanent MCAO, then at 14 days, 28 days and 59 days after permanent MCAO. The rats were monitored as they moved freely in a 20 cm-wide clear glass cylinder. Contacts made by each forepaw with the cylinder wall while rearing were scored by a blinded observer. A total of 20 contacts were recorded for each animal, and the number of impaired (left), both, and non-impaired forelimb contacts as a percentage of total contacts was calculated.

Experiment [4] deals with rat primary neuronal cultures. To be noted: cited from earlier work.
Experiment [5] deals with NMDA-induced toxicity and seizures. To be noted: in vivo models; cited from earlier work.
A further experiment concerns gerbils. To be noted: cited from earlier work.

Sequence of sigma-1 site compared to the sigma-2 site (Q99720 whole entry): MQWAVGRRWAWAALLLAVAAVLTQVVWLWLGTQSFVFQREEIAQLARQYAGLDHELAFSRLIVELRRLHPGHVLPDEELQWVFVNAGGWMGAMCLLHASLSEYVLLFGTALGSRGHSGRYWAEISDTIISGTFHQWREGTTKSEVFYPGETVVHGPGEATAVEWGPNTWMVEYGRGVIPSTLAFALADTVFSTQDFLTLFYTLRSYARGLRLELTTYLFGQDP

For `CC(C)=CCN1CCC2(C)c3cc(O)ccc3CC1C2C` (single isomer, unassigned; (+)) [(+)pentazocine], the “affinity for the sigma-1 site compared to the sigma-2 site” value in experiment [1] is “nearly two orders of magnitude higher affinity”. On to `COc1ccc(CCN2CCN(CCCc3ccccc3)CC2)cc1OC` [AGY-94806, 1-(3,4-dimethoxyphenethyl)-4-(3-phenylpropyl) piperazine], for which, in experiment [2], the “performance in rotating pole test versus control animals” value is recorded as “perform better”. Also, the “asymmetry of paw usage” value in experiment [3] (0.3 mg/kg p.o., all time points measured) is “reduced to pre-MCAO levels”. Further, the “performance in cylinder test versus control animals” value in experiment [3] is recorded as “perform better”. Further, in experiment [4], the hypoxia/hypoglycemia-induced neurotoxicity entry is recorded as “significantly suppress”. Regarding `OC(CCCN1CCN(c2ncc(F)cn2)CC1)c1ccc(F)cc1` (stereo not shown) [BMY-14802], the “protective effects against NMDA-induced toxicity and seizures” value (shortened to “protective effects”) in experiment [5] is listed as “in vivo protective effects”. For `O=C(OCCN1CCOCC1)C1(c2ccccc2)CCCCC1` [III], the “performance in rotating pole test versus control animals” value in experiment [2] is “perform better”. For the same compound, in experiment [3], the “performance in cylinder test versus control animals” value is reported as “perform better”.

As for `O=C(NC1CCN(Cc2ccccc2)CC1)c1ccc(I)cc1` [II], in experiment [2], the “performance in rotating pole test versus control animals” value was “perform better”. For the same compound, the “performance in cylinder test versus control animals” value in experiment [3] is listed as “perform better”. Turning to `COc1ccc(CN2CCN(Cc3ccccc3)CC2)c(O)c1OC` [IX], the “performance in rotating pole test versus control animals” value in experiment [2] is “perform better”. The “performance in cylinder test versus control animals” value in experiment [3] is “perform better”. In the case of `COCCCC/C(=N\OCCN)c1ccc(C(F)(F)F)cc1` [I], the “performance in rotating pole test versus control animals” value in experiment [2] is given as “perform better”. Moreover, the “performance in cylinder test versus control animals” value in experiment [3] is reported as “perform better”. With `CN(CCc1ccc(Cl)c(Cl)c1)C1CCCCC1N1CCCC1` (stereo not shown) [VIII], the “performance in rotating pole test versus control animals” value in experiment [2] was “perform better”. For the same compound, the “performance in cylinder test versus control animals” value in experiment [3] is “perform better”.

Turning to `COc1cccc2c1CCC(=O)N2CCCN1CCN(c2cccc(Cl)c2)CC1` [VII], the “performance in rotating pole test versus control animals” value in experiment [2] was “perform better”. Also, the “performance in cylinder test versus control animals” value in experiment [3] was “perform better”.

On to `CCC(C/C=C/c1ccccc1)(c1ccccc1)N(C)CC1CC1` (stereo not shown) [VI], for which the “performance in rotating pole test versus control animals” value in experiment [2] is listed as “perform better”. Moreover, in experiment [3], the “performance in cylinder test versus control animals” value is reported as “perform better”. In the case of `Fc1ccc(-n2cc(CCCCN3CCC4(CC3)OCc3ccccc34)c3ccccc32)cc1` [V], the “performance in rotating pole test versus control animals” value in experiment [2] is listed as “perform better”. Besides, in experiment [3], the “performance in cylinder test versus control animals” value is listed as “perform better”.

`CCN(CC)CCOC(=O)C1(c2ccccc2)CCCC1` [caramiphen]: in experiment [5], the “protective effects” value is given as “in vivo protective effects”. For `O=C(CCCN1CCC(O)(c2ccc(Cl)cc2)CC1)c1ccc(F)cc1` [haloperidol], the “protective effects” value in experiment [5] is “in vivo protective effects”. As for `OCCN1CCN(CCCN2c3ccccc3C=Cc3ccccc32)CC1` [opipramol], the protection against ischemia result in the experiment on gerbils is given as “protect against ischemia”.
